Laboratory results from patent publication US6156789A, “Method for treating abnormal cell proliferation in the brain” (Rhone-Poulenc Rorer S.A., priority 1998, dated 2000).
“And” between values parts separate entries of the source, which are not always exact repeats. Identical values can stand only once. Like-named read-outs stand apart in the source and are kept apart here.

Assays:
[1] = Plasma kinetics of Compound A after i.v. injection in mice (HPLC); assay type: in vivo, C3H/HeN female mice; conditions: for Cmax at 2 min: read-out: observed maximum plasma concentration
Procedure: (§1) Mammary C/16 adenocarcinomas were implanted in C3H/HeN female mice. At least 7 days later, 4α,10β-diacetoxy-2α-benzoyloxy-5β,20-epoxy-1β-hydroxy-7β,8β-methylene-9-oxo-19-nor-11-taxen-13α-yl (2R,3S)-3-tert-butoxycarbonylamino-2-hydroxy-3-phenylpropionate ("Compound A") was administered to groups of female mice at doses of 9.5, 15.4, 24.8, 40 or 60.5 mg/kg by intravenous injection under 0.4 or 0.5 ml/injection over 15 seconds. The body weight and date of implantation were recorded for each mouse. Blood and tissue samples were taken 2, 5, 15, 30 and 45 minutes and 1, 4, 14, 24 and 48 hours, after administration. The plasma was separated from the blood samples at 4° C. and frozen immediately. The tissue and tumors were weighed and frozen immediately (-20° C.).
(§2) The plasma and tissue samples were then analyzed for the concentration of Compound A. The plasma was assayed by high pressure liquid chromatography with spectrophotometric detection. For the tissue, liver, heart, kidney, lung, spleen and tumor tissue, samples were assayed by a first method, while a second method was used for the brain tissue analyzed. In the first method, 0.2 g of tissue was combined with 2 ml of sodium phosphate buffer 0.1 M (pH:7) and homogenized. The homogenate was centrifuged and 0.5 ml of supernatant was injected into the chromatographic column. In the second method, 10 μl of standard solution was combined with 0.2 g of brain tissue. 2 ml of methanol/5% perchloric acid (50/50) were added and the mixture was homogenized. The homogenate was centrifuged and 100 μl of supernatant was injected into the chromatographic column.

[2] = Brain distribution of Compound A in mice with mammary C/16 adenocarcinomas (second method, brain tissue); assay type: in vivo, C3H/HeN female mice
Procedure: as §1, §2

[3] = 0.03 h, 40 μg/kg [sic], single mice
[4] = 0.03 h, 40 μg/kg [sic], single mice, 40 mg/kg, 1.8 min
[5] = 0.08 h, 40 μg/kg [sic], single mice, MEAN=b257
[6] = 0.08 h, 40 μg/kg [sic], single mice, MEAN=b257, 40 mg/kg, 4.8 min
[7] = 0.25 h, 40 μg/kg [sic], single mice
[8] = 0.25 h, 40 μg/kg [sic], single mice, 40 mg/kg, 15 min
[9] = 0.50 h, 40 μg/kg [sic], single mice
[10] = 0.75 h, 40 μg/kg [sic], single mice, MEAN=b278
[11] = 1 h, 40 μg/kg [sic], single mice
[12] = 1 h, 40 μg/kg [sic], single mice, 40 mg/kg, 60 min
[13] = 4 h, 40 μg/kg [sic], single mice
[14] = 4 h, 40 μg/kg [sic], single mice, 40 mg/kg, 240 min
[15] = 14 h, 40 μg/kg [sic], single mice
[16] = 24 h, 40 μg/kg [sic], single mice
[17] = 24 h, 40 μg/kg [sic], single mice, 40 mg/kg, 1440 min
[18] = 48 h, 40 μg/kg [sic], single mice

In the case of CC(=O)O[C@H]1C(=O)[C@]23C[C@H]2C[C@H]2OC[C@@]2(OC(C)=O)[C@H]3[C@H](OC(=O)c2ccccc2)[C@]2(O)C[C@H](OC(=O)[C@H](O)[C@@H](NC(=O)OC(C)(C)C)c3ccccc3)C(C)=C1C2(C)C [Compound A, 4α,10β-diacetoxy-2α-benzoyloxy-5β,20-epoxy-1β-hydroxy-7β,8β-methylene-9-oxo-19-nor-11-taxen-13α-yl (2R,3S)-3-tert-butoxycarbonylamino-2-hydroxy-3-phenylpropionate], the “kinetics in plasma and tumor tissue, linearity” value ([1]; 9.5 to 60.5 mg/kg i.v.) is reported as “linear over the range studied”, the “maximum plasma concentrations, dose linearity” value ([1]; 9.5 to 60.5 mg/kg i.v., 2 minutes) is reported as “linear with respect to dose” and the Cmax at 2 min ([1]; mouse, plasma, iv, 9.5 mg/kg i.v., 2 minutes) is reported as 14000 ± 1000 ng/mL. The Cmax at 2 min ([1]; mouse, plasma, iv, 15.4 mg/kg i.v., 2 minutes) was 21000 ± 2000 ng/mL, the Cmax at 2 min ([1]; mouse, plasma, iv, 24.8 mg/kg i.v., 2 minutes) was 35000 ± 2000 ng/mL and the Cmax at 2 min ([1]; mouse, plasma, iv, 40 mg/kg i.v., 2 minutes) was 51000 ± 1000 ng/mL. For the same compound, the Cmax at 2 min ([1]; mouse, plasma, iv, 60.5 mg/kg i.v., 2 minutes) was 133000 ± 30000 ng/mL, the AUC(0-t) at 4 h ([1]; mouse, plasma, iv, dose = 40 mg/kg) was 35000 ng·h/mL and the AUC(0-inf) ([1]; mouse, plasma, iv, dose = 40 mg/kg, read-out: AUC 0 to Infinity, Plasma) was 58600 ng·h/mL. For the same compound, the half-life ([1]; mouse, plasma, iv, dose = 40 mg/kg, read-out: t 1/2, Plasma (converted)) was 4.4 h, the “brain and plasma AUCs at 4 hours compared” value ([2]; 40 mg/kg i.v.) was “similar” and the “0 to infinity AUC in brain tissue compared with plasma” value ([2]; 40 mg/kg i.v., mouse) was “ten times that observed for plasma”. The “% of DOSE (brain)” value [2, 3] was 0.42% and 0.53% and 0.47% and 0.36% and 0.45%, the “AMOUNT In TISSUE (brain)” value [2, 3] was 4.21 µg and 5.17 µg and 4.34 µg and 3.55 µg and 4.32 µg and the “Brain CONC.” value [2, 4] was 11.32 µg/g and 9.51 µg/g and 7.64 µg/g and 9.57 µg/g. For the same compound, the “RATIO BRAIN/PLASMA” value [2, 4] was 0.22 and 0.15, the “Percentage of Compound A (of dose) in Brain” value (“Percentage” below) ([2]; 0.033 h, 40 mg/kg) was 0.19% and the “% of DOSE (brain)” value [2, 5] was 0.60% and 0.49% and 0.58% and 0.56%. The “AMOUNT In TISSUE (brain)” value [2, 5] was 6.14 µg and 4.62 µg and 5.62 µg and 5.46 µg, the “Brain CONC.” value [2, 6] was 10.69 µg/g and 13.46 µg/g and 12.56 µg/g and the “RATIO BRAIN/PLASMA” value [2, 6] was 0.27 and 0.29 and 0.34. The “% of DOSE (brain)” value [2, 7] was 0.58% and 0.52% and 0.67% and 0.66% and 0.61%, the “AMOUNT In TISSUE (brain)” value [2, 7] was 5.38 µg and 4.88 µg and 6.68 µg and 6.07 µg and 5.75 µg and the “Brain CONC.” value [2, 8] was 11.16 µg/g and 15.37 µg/g and 13.12 µg/g and 13.21 µg/g. For the same compound, the “RATIO BRAIN/PLASMA” value [2, 8] was 0.53 and 0.50 and 0.66 and 0.57, the “% of DOSE (brain)” value [2, 9] was 0.53% and 0.45% and 0.42% and 0.39% and the “AMOUNT In TISSUE (brain)” value [2, 9] was 4.78 µg and 4.56 µg and 3.87 µg and 3.53 µg and 4.19 µg. The “RATIO BRAIN/PLASMA” value ([2]; 0.50 h, 40 μg/kg [sic], single mice, 40 mg/kg, 30 min) was 0.69 and 0.75, the “% of DOSE (brain)” value [2, 10] was 0.38% and 0.53% and 0.50% and 0.45% and the “AMOUNT In TISSUE (brain)” value [2, 10] was 3.32 µg and 4.99 µg and 4.49 µg and 3.92 µg and 4.18 µg. The “Brain CONC.” value ([2]; 0.75 h, 40 μg/kg [sic], single mice, MEAN=b278, 40 mg/kg, 45 min) was 11.46 µg/g and 9.98 µg/g and 9.00 µg/g and 9.5 µg/g, the “% of DOSE (brain)” value [2, 11] was 0.54% and 0.34% and 0.33% and 0.43% and 0.41% and the “AMOUNT In TISSUE (brain)” value [2, 11] was 5.14 µg and 3.35 µg and 3.14 µg and 4.22 µg and 3.96 µg. The “Brain CONC.” value [2, 12] was 7.23 µg/g and 7.33 µg/g and 9.05 µg/g and 8.77 µg/g, the “RATIO BRAIN/PLASMA” value [2, 12] was 1.18 and 1.12 and the “Percentage” value ([2]; 1 h, 40 mg/kg) was 0.41%. For the same compound, the “% of DOSE (brain)” value [2, 13] was 0.34% and 0.45% and 0.36% and 0.40% and 0.39%, the “AMOUNT In TISSUE (brain)” value [2, 13] was 3.27 µg and 4.27 µg and 3.40 µg and 3.67 µg and 3.65 µg and the “Brain CONC.” value [2, 14] was 10.24 µg/g and 7.88 µg/g and 8.38 µg/g and 8.47 µg/g. The “RATIO BRAIN/PLASMA” value [2, 14] was 2.46 and 2.7 and 2.71, the “Percentage” value ([2]; 4 h, 40 mg/kg) was 0.39% and the “% of DOSE (brain)” value [2, 15] was 0.40% and 0.44% and 0.28% and 0.38%. The “AMOUNT In TISSUE (brain)” value [2, 15] was 3.73 µg and 4.06 µg and 2.46 µg and 3.65 µg and 3.48 µg, the “Brain CONC.” value ([2]; 14 h, 40 μg/kg [sic], single mice, 40 mg/kg, 840 min) was 8.77 µg/g and 5.77 µg/g and 8.23 µg/g and 7.84 µg/g and the “% of DOSE (brain)” value [2, 16] was 0.39% and 0.29% and 0.33%. For the same compound, the “AMOUNT In TISSUE (brain)” value [2, 16] was 3.78 µg and 2.58 µg and 2.79 µg and 3.08 µg and 3.06 µg, the “Brain CONC.” value [2, 17] was 6.00 µg/g and 6.20 µg/g and 7.03 µg/g and 6.95 µg/g and the “RATIO BRAIN/PLASMA” value [2, 17] was 20.67 and 20.68. The “Percentage” value ([2]; 24 h, 40 mg/kg) was 0.33%, the “% of DOSE (brain)” value [2, 18] was 0.15% and 0.21% and 0.20% and 0.19% and the “AMOUNT In TISSUE (brain)” value [2, 18] was 1.55 µg and 2.02 µg and 2.13 µg and 1.97 µg and 1.92 µg. For the same compound, the “Brain CONC.” value ([2]; 48 h, 40 μg/kg [sic], single mice, 40 mg/kg, 2880 min) was 4.54 µg/g and 4.77 µg/g and 4.48 µg/g and 4.37 µg/g, the “Percentage” value ([2]; 48 h, 40 mg/kg) was 0.19% and the “AUC 0-4 Hours, Brain” value ([2]; dose = 40 mg/kg) was 36.3 µg·h/g. For the same compound, the “AUC 0 to Infinity, Brain” value ([2]; dose = 40 mg/kg) was 627 µg·h/g, the “t 1/2, Brain” value ([2]; dose = 40 mg/kg) was 47.6 h and the half-life ([2]; mouse, brain, iv, 40 mg/kg, 40 mg/kg i.v., read-out: half-life of the distribution phase, brain (converted)) was 0.07 h. For the same compound, the concentration at 0.03 h ([2]; mouse, brain, iv, 40 mg/kg, 0.03 h, 40 μg/kg [sic], single mice, read-out: Brain CONC.) was 9800 ng/g, the concentration at 0.08 h ([2]; mouse, brain, iv, 40 mg/kg, 0.08 h, 40 μg/kg [sic], single mice, MEAN=b257, read-out: Brain CONC.) was 13500 ng/g and the concentration at 0.25 h ([2]; mouse, brain, iv, 40 mg/kg, 0.25 h, 40 μg/kg [sic], single mice, read-out: Brain CONC.) was 13200 ng/g. It also gave a concentration at 0.5 h ([2]; mouse, brain, iv, 40 mg/kg, 0.50 h, 40 μg/kg [sic], single mice, read-out: Brain CONC.) of 11200 ng/g, a concentration at 0.75 h ([2]; mouse, brain, iv, 40 mg/kg, 0.75 h, 40 μg/kg [sic], single mice, MEAN=b278, read-out: Brain CONC.) of 7540 ng/g and a concentration at 1 h ([2]; mouse, brain, iv, 40 mg/kg, 1 h, 40 μg/kg [sic], single mice, read-out: Brain CONC.) of 11500 ng/g. For the same compound, the concentration at 4 h ([2]; mouse, brain, iv, 40 mg/kg, 4 h, 40 μg/kg [sic], single mice, read-out: Brain CONC.) was 7390 ng/g, the concentration at 14 h ([2]; mouse, brain, iv, 40 mg/kg, 14 h, 40 μg/kg [sic], single mice, read-out: Brain CONC.) was 8570 ng/g and the concentration at 24 h ([2]; mouse, brain, iv, 40 mg/kg, 24 h, 40 μg/kg [sic], single mice, read-out: Brain CONC.) was 8580 ng/g. The concentration at 48 h ([2]; mouse, brain, iv, 40 mg/kg, 48 h, 40 μg/kg [sic], single mice, read-out: Brain CONC.) was 3670 ng/g, the half-life ([2]; mouse, brain, iv, 40 mg/kg, read-out: t 1/2, Brain (converted)) was 47.6 h and the Tmax ([2]; mouse, brain, iv, 40 mg/kg i.v., read-out: time of maximum concentration, brain) was 0.25 h. It also gave a Kp at 0.03 h ([2]; mouse, brain/plasma, iv, 40 mg/kg, 0.03 h, 40 μg/kg [sic], single mice, read-out: RATIO BRAIN/PLASMA) of 0.2, a Kp at 0.08 h ([2]; mouse, brain/plasma, iv, 40 mg/kg, 0.08 h, 40 μg/kg [sic], single mice, MEAN=b257, read-out: RATIO BRAIN/PLASMA) of 0.47 and a Kp at 0.25 h ([2]; mouse, brain/plasma, iv, 40 mg/kg, 0.25 h, 40 μg/kg [sic], single mice, read-out: RATIO BRAIN/PLASMA) of 0.6. For the same compound, the Kp at 0.5 h ([2]; mouse, brain/plasma, iv, 40 mg/kg, 0.50 h, 40 μg/kg [sic], single mice, read-out: RATIO BRAIN/PLASMA) was 0.93, the Kp at 1 h ([2]; mouse, brain/plasma, iv, 40 mg/kg, 1 h, 40 μg/kg [sic], single mice, read-out: RATIO BRAIN/PLASMA) was 1.42 and the Kp at 4 h ([2]; mouse, brain/plasma, iv, 40 mg/kg, 4 h, 40 μg/kg [sic], single mice, read-out: RATIO BRAIN/PLASMA) was 2.84. The Kp at 24 h ([2]; mouse, brain/plasma, iv, 40 mg/kg, 24 h, 40 μg/kg [sic], single mice, read-out: RATIO BRAIN/PLASMA) was 20.7.
